Key:
[1] = test system: CCRF-CEM; test: Cytotoxicity against human CCRF-CEM cells assessed as cell growth at 10 uM after 48 hrs by SRB assay relative to control; assay type: functional; details: read-out: Activity
[2] = test system: SN12C; test: Cytotoxicity against human SN12C cells assessed as cell growth at 10 uM after 48 hrs by SRB assay relative to control; assay type: functional; details: read-out: Activity
[3] = test system: Malme-3M; test: Cytotoxicity against human MALME-3M cells assessed as cell growth at 10 uM after 48 hrs by SRB assay relative to control; assay type: functional; details: read-out: Activity
[4] = test system: HL-60(TB); test: Cytotoxicity against human HL-60(TB) cells assessed as cell growth at 10 uM after 48 hrs by SRB assay relative to control; assay type: functional; details: HL-60, 48 h, read-out: Activity
[5] = Cytotoxicity against human HCT116 cells assessed as cell growth at 10 uM after 48 hrs by SRB assay relative to control; assay type: functional; details: HCT-116, 48 h, read-out: Activity
[6] = Cytotoxicity against human UACC62 cells assessed as cell growth at 10 uM after 48 hrs by SRB assay relative to control; assay type: functional; details: UACC-62, 48 h, read-out: Activity
[7] = test system: SF-268; test: Cytotoxicity against human SF268 cells assessed as cell growth at 10 uM after 48 hrs by SRB assay relative to control; assay type: functional; details: SF-268, 48 h, read-out: Activity
[8] = Cytotoxicity against human OVCAR5 cells assessed as cell growth at 10 uM after 48 hrs by SRB assay relative to control; assay type: functional; details: OVCAR-5, 48 h, read-out: Activity
[9] = Cytotoxicity against human Hs 578T cells assessed as cell growth at 10 uM after 48 hrs by SRB assay relative to control; assay type: functional; details: read-out: Activity
[10] = test system: MCF7; test: Growth inhibition of human MCF7 cells after 72 hrs by MTT assay; assay type: functional, cell-based; details: MCF7, 72 h
[11] = test system: RXF 393; test: Cytotoxicity against human RXF393 cells assessed as cell growth at 10 uM after 48 hrs by SRB assay relative to control; assay type: functional; details: RXF 393, 48 h, read-out: Activity
[12] = test system: SW-620; test: Cytotoxicity against human SW620 cells assessed as cell growth at 10 uM after 48 hrs by SRB assay relative to control; assay type: functional; details: SW-620, 48 h, read-out: Activity
[13] = test system: COLO 205; test: Cytotoxicity against human COLO205 cells assessed as cell growth at 10 uM after 48 hrs by SRB assay relative to control; assay type: functional; details: COLO 205, 48 h, read-out: Activity
[14] = test system: CAKI-1; test: Cytotoxicity against human Caki1 cells assessed as cell growth at 10 uM after 48 hrs by SRB assay relative to control; assay type: functional; details: CAKI-1, 48 h, read-out: Activity
[15] = Cytotoxicity against human UO31 cells assessed as cell growth at 10 uM after 48 hrs by SRB assay relative to control; assay type: functional; details: UO-31, 48 h, read-out: Activity
[16] = test system: DU-145; test: Cytotoxicity against human DU145 cells assessed as cell growth at 10 uM after 48 hrs by SRB assay relative to control; assay type: functional; details: DU-145, 48 h, read-out: Activity
[17] = test system: NCI-H23; test: Cytotoxicity against human NCI-H23 cells assessed as cell growth at 10 uM after 48 hrs by SRB assay relative to control; assay type: functional; details: NCI-H23, 48 h, read-out: Activity
[18] = test system: BT-549; test: Cytotoxicity against human BT549 cells assessed as cell growth at 10 uM after 48 hrs by SRB assay relative to control; assay type: functional; details: BT-549, 48 h, read-out: Activity
[19] = test system: SR; test: Cytotoxicity against human SR cells assessed as cell growth at 10 uM after 48 hrs by SRB assay relative to control; assay type: functional; details: read-out: Activity
[20] = test system: HOP-92; test: Cytotoxicity against human HOP92 cells assessed as cell growth at 10 uM after 48 hrs by SRB assay relative to control; assay type: functional; details: HOP-92, 48 h, read-out: Activity
[21] = test system: MDA-MB-231; test: Cytotoxicity against human MDA-MB-231 cells assessed as growth inhibition after 24 hrs by MTT assay; assay type: cell-based; details: MDA-MB-231, 24 h
[22] = test system: NCI-H522; test: Cytotoxicity against human NCI-H522 cells assessed as cell growth at 10 uM after 48 hrs by SRB assay relative to control; assay type: functional; details: NCI-H522, 48 h, read-out: Activity
[23] = test system: NCI-H460; test: Cytotoxicity against human NCI-H460 cells assessed as cell growth at 10 uM after 48 hrs by SRB assay relative to control; assay type: functional; details: NCI-H460, 48 h, read-out: Activity
[24] = test system: SNB-19; test: Cytotoxicity against human SNB19 cells assessed as cell growth at 10 uM after 48 hrs by SRB assay relative to control; assay type: functional; details: SNB-19, 48 h, read-out: Activity
[25] = Cytotoxicity against human OVCAR4 cells assessed as cell growth at 10 uM after 48 hrs by SRB assay relative to control; assay type: functional; details: OVCAR-4, 48 h, read-out: Activity
[26] = test system: SF-295; test: Cytotoxicity against human SF295 cells assessed as cell growth at 10 uM after 48 hrs by SRB assay relative to control; assay type: functional; details: SF-295, 48 h, read-out: Activity
[27] = test system: MDA-MB-468; test: Cytotoxicity against human MDA-MB-468 cells assessed as cell growth at 10 uM after 48 hrs by SRB assay relative to control; assay type: functional; details: MDA-MB-468, 48 h, read-out: Activity
[28] = Cytotoxicity against human EKVX cells assessed as cell growth at 10 uM after 48 hrs by SRB assay relative to control; assay type: functional; details: read-out: Activity
[29] = Cytotoxicity against human HCT116 cells assessed as cell growth at 10^-8 M after 48 hrs by SRB assay relative to control; assay type: functional; details: HCT-116, 48 h, read-out: Activity
[30] = Cytotoxicity against human HCT15 cells after 48 hrs by SRB assay; assay type: functional; details: HCT-15, 48 h
[31] = test system: NCI-H322M; test: Cytotoxicity against human NCI-H322M cells assessed as cell growth at 10^-8 M after 48 hrs by SRB assay relative to control; assay type: functional; details: read-out: Activity
[32] = test system: ACHN; test: Cytotoxicity against human ACHN cells assessed as cell growth at 10^-8 M after 48 hrs by SRB assay relative to control; assay type: functional; details: read-out: Activity
[33] = test system: SK-MEL-2; test: Cytotoxicity against human SK-MEL-2 cells after 48 hrs by SRB assay; assay type: functional; details: SK-MEL-2, 48 h
[34] = Cytotoxicity against human OVCAR5 cells assessed as cell growth at 10^-6 M after 48 hrs by SRB assay relative to control; assay type: functional; details: OVCAR-5, 48 h, read-out: Activity
[35] = test system: SK-MEL-5; test: Cytotoxicity against human SK-MEL-5 cells after 48 hrs by SRB assay; assay type: functional; details: SK-MEL-5, 48 h
[36] = test system: DU-145; test: Cytotoxicity against human DU145 cells assessed as cell growth at 10^-7 M after 48 hrs by SRB assay relative to control; assay type: functional; details: DU-145, 48 h, read-out: Activity
[37] = test system: HT-29; test: Cytotoxicity against human HT-29 cells assessed as cell growth at 10^-4 M after 48 hrs by SRB assay relative to control; assay type: functional; details: HT-29, 48 h, read-out: Activity

`CC(C)=CCC[C@H](C)c1ccc(C)c2c1OCN(CCCCCO)C2` gave a growth at 10 µM [1] of 96%, a growth at 10 µM [2] of 78.6% and a growth at 10 µM [3] of 93.7%. For the same compound, the growth at 10 µM [4] was 51.7%, the growth at 10 µM [5] was 68.6% and the growth at 10 µM [6] was 82.8%. The growth at 10 µM [7] was 97.5%, the growth at 10 µM [8] was 87.4% and the growth at 10 µM [9] was 81.2%. The IC50 [10] was 6.9 µM, the growth at 10 µM [11] was 90.1% and the growth at 10 µM [12] was 94.9%. For the same compound, the growth at 10 µM [13] was 90%, the growth at 10 µM [14] was 78.1% and the growth at 10 µM [15] was 57%. The growth at 10 µM [16] was 109%, the growth at 10 µM [17] was 91.3% and the growth at 10 µM [18] was 72.1%. The growth at 10 µM [19] was 66.6%, the growth at 10 µM [20] was 27.7% and the IC50 [21] was over 20 µM. It also gave a growth at 10 µM [22] of -1.75%, a growth at 10 µM [23] of 81.1% and a growth at 10 µM [24] of 88.8%. It also gave a growth at 10 µM [25] of 95.5%, a growth at 10 µM [26] of 110% and a growth at 10 µM [27] of 90%. The growth at 10 µM [28] was 102%.

`CC(C)=CCC[C@H](C)c1ccc(C)c(CNCC2CCNCC2)c1O` showed a growth at 0.01 µM [29] of 100%, a GI50 [30] of 5.19 µM and a TGI [30] of 18.6 µM. The CC50 ([30]; read-out: LC50 (the source's name)) was over 25 µM, the growth at 10 µM [1] was 71.3% and the growth at 0.01 µM [31] was 99%. For the same compound, the growth at 10 µM [2] was 78%, the growth at 10 µM [3] was 88% and the growth at 0.01 µM [32] was 96%. It also gave a growth at 10 µM [4] of 99%, a growth at 10 µM [5] of 63% and a growth at 10 µM [6] of 13.2%. The growth at 10 µM [7] was 87.7%, the growth at 10 µM [8] was 82% and the growth at 10 µM [9] was 71%. For the same compound, the IC50 [10] was over 20 µM, the growth at 10 µM [11] was 65% and the growth at 10 µM [12] was 86%. The growth at 10 µM [13] was -59%, the GI50 [33] was 5.03 µM and the LC50 [33] was 19.2 µM. It also gave a TGI [33] of 9.83 µM, a growth at 10 µM [14] of 71.8% and a growth at 10 µM [15] of 64.3%. The growth at 10 µM [16] was 91.2%, the growth at 10 µM [17] was 84% and the growth at 10 µM [19] was 0.23%. It also gave an IC50 [21] of over 20 µM, a growth at 10 µM [22] of 86.8% and a growth at 1 µM [34] of 90%. For the same compound, the GI50 [35] was 3.41 µM, the LC50 [35] was 12.9 µM and the TGI [35] was 6.63 µM. The growth at 10 µM [23] was 54.7%, the growth at 0.1 µM [36] was 96% and the growth at 10 µM [24] was 84%. For the same compound, the growth at 10 µM [25] was 88%, the growth at 10 µM [26] was 67% and the growth at 10 µM [27] was 70%. The growth at 10 µM [28] was 67% and the growth at 100 µM [37] was -66%.

For `CC(C)=CCC[C@H](C)c1ccc(C)c(CO)c1O`, the growth at 10 µM [1] was 94.2%, the growth at 10 µM [2] was 91.3% and the growth at 10 µM [3] was 110%. It also gave a growth at 10 µM [4] of 95.7%, a growth at 10 µM [5] of 91.3% and a growth at 10 µM [6] of 90.4%. The growth at 10 µM [8] was 110%, the growth at 10 µM [9] was 104% and the IC50 [10] was over 20 µM. It also gave a growth at 10 µM [11] of 92.3%, a growth at 10 µM [12] of 118% and a growth at 10 µM [13] of 125%. For the same compound, the growth at 10 µM [14] was 112%, the growth at 10 µM [15] was 76.7% and the growth at 10 µM [17] was 92.9%. It also gave a growth at 10 µM [18] of 91.8%, a growth at 10 µM [20] of 65.2% and an IC50 [21] of over 20 µM. It also gave a growth at 10 µM [22] of 87.1%, a growth at 10 µM [23] of 108% and a growth at 10 µM [24] of 101%. The growth at 10 µM [25] was 90.7%, the growth at 10 µM [26] was 103% and the growth at 10 µM [27] was 93.5%. For the same compound, the growth at 10 µM [28] was 103%.

`CC(C)=CCC[C@H](C)c1ccc(C)cc1O` showed a growth at 10 µM [1] of 105%, a growth at 10 µM [2] of 105% and a growth at 10 µM [3] of 115%. It also gave a growth at 10 µM [4] of 85.7%, a growth at 10 µM [5] of 97.3% and a growth at 10 µM [6] of 100%. It also gave a growth at 10 µM [8] of 99%, a growth at 10 µM [9] of 114% and an IC50 [10] of over 20 µM. It also gave a growth at 10 µM [11] of 103%, a growth at 10 µM [12] of 114% and a growth at 10 µM [13] of 117%. The growth at 10 µM [14] was 107%, the growth at 10 µM [15] was 83% and the growth at 10 µM [17] was 94.9%. It also gave a growth at 10 µM [18] of 114%, a growth at 10 µM [20] of 85% and an IC50 [21] of over 20 µM. For the same compound, the growth at 10 µM [22] was 101%, the growth at 10 µM [23] was 107% and the growth at 10 µM [24] was 98.5%. For the same compound, the growth at 10 µM [25] was 100%, the growth at 10 µM [26] was 107% and the growth at 10 µM [27] was 95.7%. The growth at 10 µM [28] was 110%.

Source: ChEMBL document CHEMBL3390836, “Mannich- and LedererManasse-based analogues of the natural product S-(+)-curcuphenol as cancer proliferation and migration inhibitors” (Medchemcomm, 2012)
